This note sets out measurements from patent US20230091225A1, “Bifunctional chimeric heterocyclic compounds for targeted degradation of androgen receptors and use thereof” (HINOVA PHARMACEUTICALS INC., priority 2019, published 2023).

For one assay, the system named is LNCaP/AR cells. The experiment in a line: Inhibition of proliferation of LNCaP/AR prostate cancer cells (CCK-8). It is filed as cell-based.
The target in another assay is T1, androgen receptor (AR) (Homo sapiens, UniProt P10275).
T1 sequence (P10275 1-920): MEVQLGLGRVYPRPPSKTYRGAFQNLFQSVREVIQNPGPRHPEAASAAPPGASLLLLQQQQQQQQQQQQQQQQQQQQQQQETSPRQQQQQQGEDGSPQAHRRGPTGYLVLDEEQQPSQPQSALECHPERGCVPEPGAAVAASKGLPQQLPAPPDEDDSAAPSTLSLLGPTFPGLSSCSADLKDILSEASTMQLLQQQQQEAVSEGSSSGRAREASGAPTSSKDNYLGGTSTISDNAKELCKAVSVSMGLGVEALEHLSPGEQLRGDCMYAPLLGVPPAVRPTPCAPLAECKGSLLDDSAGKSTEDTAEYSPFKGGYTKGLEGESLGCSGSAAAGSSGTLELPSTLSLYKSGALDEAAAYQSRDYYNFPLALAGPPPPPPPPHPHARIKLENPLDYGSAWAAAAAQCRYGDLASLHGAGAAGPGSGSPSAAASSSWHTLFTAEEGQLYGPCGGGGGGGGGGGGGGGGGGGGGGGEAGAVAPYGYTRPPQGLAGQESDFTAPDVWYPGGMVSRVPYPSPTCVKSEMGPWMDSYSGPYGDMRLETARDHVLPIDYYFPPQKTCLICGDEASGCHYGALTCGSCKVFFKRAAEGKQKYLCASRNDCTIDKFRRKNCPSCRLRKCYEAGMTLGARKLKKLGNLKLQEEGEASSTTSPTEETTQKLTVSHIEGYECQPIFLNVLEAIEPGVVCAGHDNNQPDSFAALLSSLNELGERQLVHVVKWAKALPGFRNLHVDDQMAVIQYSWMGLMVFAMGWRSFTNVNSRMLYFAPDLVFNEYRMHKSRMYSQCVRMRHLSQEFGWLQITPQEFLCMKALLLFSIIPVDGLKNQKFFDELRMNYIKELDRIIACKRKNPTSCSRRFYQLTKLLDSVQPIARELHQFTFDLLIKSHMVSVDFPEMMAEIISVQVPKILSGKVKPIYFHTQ
In words: Degradation of androgen receptor (AR) protein in VCaP cells by ELISA. It is filed as cell-based. The note with it: for inhibition at 0.1 µM: 16 h, read-out: % degradation.

The mark [1] stands for this setting: 144 h, proliferation of LNCap/AR cells, 6 days, CCK-8, read-out: IC50.
Where [2] appears, read: percentage of degraded AR at 100 nM, VCaP cells, ELISA.

A word on the IC50: it is the point on the concentration scale where inhibition reaches its midpoint.

Like-named read-outs stand apart in the source and are kept apart here. Bounds are passed on as bounds.

For the compound `CC(=O)O[C@@H]1CC(C(=O)NC2(c3ccc(-c4scnc4C)cc3)CC2)N(C(=O)[C@@H](NC(=O)COCCCCCNc2ccc(C(=O)N[C@H]3C(C)(C)[C@H](Oc4ccc(C#N)c(Cl)c4)C3(C)C)cc2)C(C)(C)C)C1` (stereo partly drawn) [Compound 46, (3R,5S)-1-((S)-2-(2-((5-((4-(((1r,3r)-3-(3-chloro-4-cyanophenoxy)-2,2,4,4-tetramethylcyclobutyl)carbamoyl)phenyl)amino)pentyl)oxy)acetamido)-3,3-dimethylbutanol)-5-((1-(4-methylthiazol-5-yl)phenyl)cyclopropyl)carbamoyl) pyrrolidin-3-yl acetate], the IC50 in the assay with LNCaP/AR cells (LNCaP/AR, 144 h) is less than 100 nM. Moreover, the inhibition at 0.1 µM on androgen receptor (AR) (VCaP) fell in the range of 25 to 49%.
As to `Cc1ncsc1-c1ccc(C2(NC(=O)C3C[C@@H](O)CN3C(=O)[C@@H](NC(=O)COCCCCCNc3ccc(C(=O)N[C@H]4C(C)(C)[C@H](Oc5ccc(C#N)c(Cl)c5)C4(C)C)cc3)C(C)(C)C)CC2)cc1` (stereo partly shown) [Compound 47], in the assay on LNCaP/AR cells (setting [1]), the IC50 is less than 100 nM. Besides, the inhibition at 0.1 µM on androgen receptor (AR) (setting [2]) fell in the range of 50 to 79%.
For `Cc1ncsc1-c1ccc([C@H](CO)NC(=O)[C@@H]2C[C@@H](O)CN2C(=O)[C@@H](NC(=O)COCCCCC#Cc2ccc3c(c2)CN([C@H]2C(C)(C)[C@H](Oc4ccc(C#N)c(Cl)c4)C2(C)C)C3=O)C(C)(C)C)cc1` [Compound 48, (2S,4R)-1-((S)-2-(2-((6-(2-(((1r,3r)-3-(3-chloro-4-cyanophenoxy))-2,2,4,4-tetramethylcyclobutyl)-1-oxoisoindolin-5-yl)hex-5-yn-1-yl)oxy)acetamido)-3,3-dimethylbutyryl)-4-hydroxy-N-((R)-2-hydroxy-1-(4-(4-methylthiazol-5-yl)phenyl)ethyl)pyrrolidine-2-carboxamide], in the assay with LNCaP/AR cells (setting [1]), the IC50 was less than 100 nM. On androgen receptor (AR) (setting [2]), the inhibition at 0.1 µM is greater than 80%.
With `CC(=O)O[C@@H]1C[C@@H](C(=O)N[C@@H](CO)c2ccc(-c3scnc3C)cc2)N(C(=O)[C@@H](NC(=O)COCCCCC#Cc2ccc3c(c2)CN([C@H]2C(C)(C)[C@H](Oc4ccc(C#N)c(Cl)c4)C2(C)C)C3=O)C(C)(C)C)C1` [Compound 49, (3R,5S)-1-((S)-2-(2-((6-(2-(((1r,3r)-3-(3-chloro-4-cyanophenoxy))-2,2,4,4-tetramethylcyclobutyl)-1-oxoisoindolin-5-yl)hex-5-yn-1-yl)oxy)acetamido)-3,3-dimethylbutyryl)-5-(((R)-2-hydroxy-1-(4-(4-methylthiazol-5-yl)phenyl)ethyl)carbamoyl)pyrrolidin-3-yl acetate], the IC50 with LNCaP/AR cells (LNCaP/AR, 144 h) is less than 100 nM. For the same compound, the inhibition at 0.1 µM at androgen receptor (AR) (setting [2]) lay within 25 to 49%.
Consider `CC1(C)[C@H](Oc2ccc(C#N)c(Cl)c2)C(C)(C)[C@H]1N1Cc2cc(C#CC3CCN(C4CCN(c5cc6c(cc5F)C(=O)N(C5CCC(=O)NC5=O)C6=O)CC4)CC3)ccc2C1=O` (stereo partly shown) [Compound 51], for which the 50% inhibitory concentration (IC50) in the assay with LNCaP/AR cells (setting [1]) lay in the range of 100 to 500 nM. Further, the inhibition at 0.1 µM on androgen receptor (AR) (setting [2]) lay in the range of 50 to 79%.
`N#Cc1ccc(O[C@H]2CC[C@H](N3Cc4nc(N5CC[C@@H](CN6CCN(c7cc8c(cc7F)CN(C7CCC(=O)NC7=O)C8=O)CC6)C5)ccc4C3=O)CC2)cc1Cl` (stereo partly shown) [Compound 54]: the IC50 with LNCaP/AR cells (setting [1]) is greater than 1000 nM. In addition, the inhibition at 0.1 µM at androgen receptor (AR) (setting [2]) was 25 to 49%.
Regarding `N#Cc1ccc(O[C@H]2CC[C@H](N3Cc4nc(N5CC[C@@H](CN6CCN(c7cc8c(cc7F)C(=O)N(C7CCC(=O)NC7=O)C8)CC6)C5)ccc4C3=O)CC2)cc1Cl` (stereo partly shown) [Compound 55], the IC50 in the assay with LNCaP/AR cells (setting [1]) is 100 to 500 nM. On androgen receptor (AR) (setting [2]), the inhibition at 0.1 µM is 25 to 49%.
For `N#Cc1ccc(O[C@H]2CC[C@H](N3Cc4nc(N5CCC(CN6CCN(c7ccc8c(c7)C(=O)N(C7CCC(=O)NC7=O)C8=O)CC6)CC5)ccc4C3=O)CC2)cc1Cl` (stereo partly shown) [Compound 57], in the assay on LNCaP/AR cells, the IC50 is greater than 1000 nM. The “% degradation” value at androgen receptor (AR) was “D (key: A: >80%; B: 79%-50%; C: 49%-25%; D: <25%)”.
